Results: ChEMBL document CHEMBL1201862, “PubChem BioAssay data set” (2004)
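Growth conditions: 96-well plates. Treatment: test compound, 48 hours, 5 concentrations. Analysis: linear interpolation between bracketing concentrations; unreached endpoints set to highest concentration. GI50 marks 50% less growth.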 The source made the active and inactive calls. Cut-off read from the data, not from the text of the source: active = GI50 up to about 1.1 µM and inactive = higher.

Experiments:
Assay in all cases: NCI-60 cell line screen, 48 h
[1] = test system: TK-10
[2] = test system: MDA-N
[3] = test system: SF-295
[4] = test system: SN12C
[5] = test system: M14
[6] = test system: T47D
[7] = test system: UO-31
[8] = test system: OVCAR-8
[9] = test system: OVCAR-4
[10] = test system: SNB-75
[11] = test system: NCI-H23
[12] = test system: A549
[13] = test system: HT-29
[14] = test system: HCT-116
[15] = test system: OVCAR-5
[16] = test system: CCRF-CEM
[17] = test system: SK-OV-3
[18] = test system: UACC-257
[19] = test system: SR
[20] = test system: RPMI-8226
[21] = test system: HOP-92
[22] = test system: NCI-H226
[23] = test system: SK-MEL-2
[24] = test system: MCF7
[25] = test system: NCI/ADR-RES
[26] = test system: SNB-19
[27] = test system: K562
[28] = test system: 786-0
[29] = test system: EKVX
[30] = test system: MDA-MB-435
[31] = test system: HCC 2998
[32] = test system: SW-620
[33] = test system: NCI-H522
[34] = test system: A498
[35] = test system: ACHN
[36] = test system: DU-145
[37] = test system: COLO 205
[38] = test system: BT-549
[39] = test system: LOX IMVI
[40] = test system: SK-MEL-5
[41] = test system: SF-539
[42] = test system: HL-60
[43] = test system: RXF 393
[44] = test system: HOP-62
[45] = test system: MDA-MB-231
[46] = test system: IGROV-1
[47] = test system: CAKI-1
[48] = test system: PC-3
[49] = test system: MOLT-4
[50] = test system: Malme-3M
[51] = test system: UACC-62
[52] = test system: SK-MEL-28
[53] = test system: SF-268
[54] = test system: U-251
[55] = test system: KM12
[56] = test system: Hs-578T
[57] = test system: HCT-15
[58] = test system: OVCAR-3
[59] = test system: NCI-H460

CC(C#N)(c1ccccc1)N(CCc1ccccc1)C(=O)Oc1ccccc1 (stereo unspecified)
GI50 [1]: > 100 µM (inactive)
GI50 [2]: > 100 µM (inactive)
GI50 [3]: > 100 µM (inactive)
GI50 [4]: > 100 µM (inactive)
GI50 [5]: > 100 µM (inactive)
GI50 [6]: > 100 µM (inactive)
GI50 [7]: > 100 µM (inactive)
GI50 [8]: > 100 µM (inactive)
GI50 [9]: 30.7 µM (inactive)
GI50 [10]: 25.9 µM (inactive)
GI50 [11]: > 100 µM (inactive)
GI50 [12]: > 100 µM (inactive)
GI50 [13]: > 100 µM (inactive)
GI50 [14]: > 100 µM (inactive)
GI50 [15]: > 100 µM (inactive)
GI50 [16]: > 100 µM (inactive)
GI50 [17]: > 100 µM (inactive)
GI50 [18]: > 100 µM (inactive)
GI50 [19]: > 100 µM (inactive)
GI50 [20]: > 100 µM (inactive)
GI50 [21]: 10.9 µM (inactive)
GI50 [22]: 38.5 µM (inactive)
GI50 [23]: > 100 µM (inactive)
GI50 [24]: > 100 µM (inactive)
GI50 [25]: > 100 µM (inactive)
GI50 [26]: 44.2 µM (inactive)
GI50 [27]: > 100 µM (inactive)
GI50 [28]: 40.6 µM (inactive)
GI50 [29]: > 100 µM (inactive)
GI50 [30]: > 100 µM (inactive)
GI50 [31]: > 100 µM (inactive)
GI50 [32]: > 100 µM (inactive)
GI50 [33]: > 100 µM (inactive)
GI50 [34]: > 100 µM (inactive)
GI50 [35]: > 100 µM (inactive)
GI50 [36]: > 100 µM (inactive)
GI50 [37]: > 100 µM (inactive)
GI50 [38]: > 100 µM (inactive)
GI50 [39]: > 100 µM (inactive)
GI50 [40]: > 100 µM (inactive)
GI50 [41]: > 100 µM (inactive)
GI50 [42]: > 100 µM (inactive)
GI50 [43]: 26.7 µM (inactive)
GI50 [44]: 50.2 µM (inactive)
GI50 [45]: > 100 µM (inactive)
GI50 [46]: > 100 µM (inactive)
GI50 [47]: > 100 µM (inactive)
GI50 [48]: > 100 µM (inactive)
GI50 [49]: > 100 µM (inactive)
GI50 [50]: > 100 µM (inactive)
GI50 [51]: > 100 µM (inactive)
GI50 [52]: > 100 µM (inactive)
GI50 [53]: > 100 µM (inactive)
GI50 [54]: > 100 µM (inactive)
GI50 [55]: > 100 µM (inactive)
GI50 [56]: 35.5 µM (inactive)
GI50 [57]: > 100 µM
GI50 [58]: > 100 µM (inactive)

COC1CC(O[C@H]2CC[C@@]3(C)[C@@H](CC[C@]4(O)[C@@H]3CC[C@]3(C)[C@@H](C(C)=O)[C@H](OC(=O)CC(C)C)[C@@H](OC(=O)c5ccccc5)[C@@]34O)C2)OC(C)C1OC1CC(OC)C(OC2OC(C)C(O)C(OC)C2O)C(C)O1 (stereo partly specified)
GI50 [1]: 18.3 µM (inactive)
GI50 [2]: > 25 µM (inactive)
GI50 [3]: 16.9 µM (inactive)
GI50 [4]: > 25 µM (inactive)
GI50 [5]: 16.1 µM (inactive)
GI50 [6]: 8 µM (inactive)
GI50 [59]: 9.53 µM (inactive)
GI50 [7]: 9.46 µM (inactive)
GI50 [8]: 20 µM (inactive)
GI50 [9]: 19.1 µM (inactive)
GI50 [10]: 11.9 µM (inactive)
GI50 [11]: > 25 µM (inactive)
GI50 [12]: 7.89 µM (inactive)
GI50 [13]: 11.9 µM (inactive)
GI50 [14]: 10.4 µM (inactive)
GI50 [15]: > 25 µM (inactive)
GI50 [16]: 17.8 µM (inactive)
GI50 [17]: > 25 µM (inactive)
GI50 [18]: > 25 µM (inactive)
GI50 [19]: 11.3 µM (inactive)
GI50 [20]: 6.12 µM (inactive)
GI50 [21]: 6.55 µM (inactive)
GI50 [22]: 13.6 µM (inactive)
GI50 [23]: > 25 µM (inactive)
GI50 [24]: 11.4 µM (inactive)
GI50 [25]: 19.9 µM (inactive)
GI50 [26]: > 25 µM (inactive)
GI50 [27]: 11 µM (inactive)
GI50 [28]: > 25 µM (inactive)
GI50 [29]: 9.68 µM (inactive)
GI50 [30]: 12.2 µM (inactive)
GI50 [31]: 9.2 µM (inactive)
GI50 [32]: > 25 µM (inactive)
GI50 [33]: 13.1 µM (inactive)
GI50 [34]: > 25 µM (inactive)
GI50 [35]: 24.4 µM (inactive)
GI50 [36]: > 25 µM (inactive)
GI50 [37]: 5.13 µM (inactive)
GI50 [38]: > 25 µM (inactive)
GI50 [39]: 15.9 µM (inactive)
GI50 [40]: 17.8 µM (inactive)
GI50 [41]: > 25 µM (inactive)
GI50 [42]: 7.19 µM (inactive)
GI50 [43]: > 25 µM (inactive)
GI50 [44]: 16 µM (inactive)
GI50 [45]: 18.4 µM (inactive)
GI50 [46]: 11.6 µM (inactive)
GI50 [47]: 17.7 µM (inactive)
GI50 [48]: 11.7 µM (inactive)
GI50 [49]: 7.08 µM (inactive)
GI50 [50]: 18.5 µM (inactive)
GI50 [52]: > 25 µM (inactive)
GI50 [53]: > 25 µM (inactive)
GI50 [54]: 18 µM (inactive)
GI50 [55]: 12.9 µM (inactive)
GI50 [56]: 8.09 µM (inactive)
GI50 [57]: 9.95 µM
GI50 [58]: 11.8 µM (inactive)
